# Read-outs that look alike come from different tables or passages of the source.
# Experiments:
# p53-GFP HepG2 reporter = assay: p53-GFP reporter activation, live cell confocal imaging; format: cell-based, human; conditions: 2D, normal DMEM medium
# Description: (§1) The HepG2 BAC-GFP reporters for human BTG2, p21 and p53 were generated previously and used to monitor the DDR ([14],[18]). Cells were maintained in DMEM high glucose (Gibco) supplemented with 10% (v/v) fetal bovine serum (FBS), 25 U/ml penicillin and 25 µg/ml streptomycin (referred to as normal DMEM medium) at 37°C and 5% CO2. The reporter cells were tested between passages 19–21 throughout the data presented (Supplementary Figure 1, available at Mutagenesis Online).
# Two different compound exposure scenarios were performed: a single exposure in 2D and a 4-day repeated exposure in 3D. A schematic overview of the tested exposure scenarios for each HepG2 model has been depicted in Figure 1. For the single exposure scenario in 2D, medium was replaced by freshly diluted compound in medium 24 h post seeding. DDRs were monitored after 24, 48 and 72 h by live cell confocal imaging (Figure 1A and B). […] The ATP-lite luminescence kit (Perkin Elmer) was used according to supplier’s protocol to measure cell viability. […]
# Prior to imaging, cells were stained with Hoechst 33342 at a concentration of 0.1 µg/ml to visualise the nuclei. […] The induction of GFP intensities and PI were monitored with a Nikon Eclipse Ti confocal laser microscope (Nikon, Amsterdam, The Netherlands), equipped with lasers at wavelengths 408, 488 and 561, an automated stage and perfect focus system at 37°C and 5% CO2. […]
# BTG2-GFP HepG2 reporter = format: cell-based
# Description: as §1
# (§2) Two different compound exposure scenarios were performed: a single exposure in 2D and a 4-day repeated exposure in 3D. A schematic overview of the tested exposure scenarios for each HepG2 model has been depicted in Figure 1. For the single exposure scenario in 2D, medium was replaced by freshly diluted compound in medium 24 h post seeding. DDRs were monitored after 24, 48 and 72 h by live cell confocal imaging (Figure 1A and B). For the 4-day repeated exposure scenario in 3D, each day medium was replaced by freshly diluted compound in medium for four consecutive days (Figure 1C and D). The imaging was started 24 h after the last exposure. For both scenarios, five compounds in eight concentrations were tested. DMSO, PBS or ultrapure H2O were used as solvent controls. The ATP-lite luminescence kit (Perkin Elmer) was used according to supplier’s protocol to measure cell viability. Measurements were performed 72 h or 24 h post single or repeated exposure, respectively. Absolute IC50 values have been calculated over the ATP-lite data by determining the intersect of the fitted concentration–response curve with the 50% viability baseline via GraphPad prism 8.1.1.
# (§3) Prior to imaging, cells were stained with Hoechst 33342 at a concentration of 0.1 µg/ml to visualise the nuclei. To examine compound-induced cell death using confocal microscopy, propidium iodide (PI) was added during all compound exposures at a concentration of 100 µM to stain for necrotic or late apoptotic cells. The induction of GFP intensities and PI were monitored with a Nikon Eclipse Ti confocal laser microscope (Nikon, Amsterdam, The Netherlands), equipped with lasers at wavelengths 408, 488 and 561, an automated stage and perfect focus system at 37°C and 5% CO2. Images for 2D cultures were acquired with a Nikon 20x Dry Plan Apo VC NA 0.75 objective. Images for 3D cultures were acquired with a Nikon 10x Dry Plan Fluor NA 0.3 objective. For each condition, a z-stack of 9–11 images was generated with a step size of 30 µm.
# (§4) For 2D cultures, image quantification was performed with Cell Profiler version 2.2.0 (Broad Institute, Cambridge, USA) using modules described previously ([14]). Nuclei segmentation based on Hoechst was done in ImageJ using an in-house developed macro based on the watershed masked clustering algorithm ([27]). Segmentation of the cytoplasmic area was done using the Distance N method expanding the edges of nuclear objects with six pixels followed by subtraction of the nuclear area. p21 and p53-GFP intensities were measured in the nuclei and BTG2-GFP in the cytoplasm. The PI-positive cells were identified by an overlay of the PI signal and the segmented nuclei. A cell was considered positive when there was at least 10% overlap. Results were stored in HDF5 format ([28]). To extract summarised data for further analysis and visualisation, in-house developed R-scripts were used in RStudio (version 1.0.153) (Boston, MA, USA) ([29–31]). The mean nuclear and cytoplasmic intensities of all measured single cells and the fraction of PI-positive cells for each image were extracted as output from the HDF5 files.
# (§5) For 3D cultures, the NIS Elements analysis software (Nikon, Amsterdam, The Netherlands) was used to quantify the GFP intensity and PI-positive area within spheroids.
# [1] = system: p53 pathway activation (p53-GFP, p21-GFP, BTG2-GFP HepG2 reporters); format: cell-based; conditions: for DDR (p21 and p53 activation): 3D, 4-day repeated dosing
# Description: as §1, §2, §3, §4, §5
# PHH = system: PHH; design: method as in PMID 32318794; conditions: cited from earlier work
compound,measurement,setting,value
Cc1c(-c2ccc(-c3ccccc3F)cc2)nc2ccc(F)cc2c1C(=O)O [Brequinar],maximal p53 induction compared to other reporters,p53-GFP HepG2 reporter,~ 3 fold
same,BTG2-GFP response across culture conditions,BTG2-GFP HepG2 reporter; four culture conditions,only induced BTG2-GFP responses in the proliferating HepG2 cultured in 2D in normal DMEM medium
same,DDR (p21 and p53 activation),[1]; AAGLY medium,induced a DDR (p21 and p53 activation) at the highest concentration
same,DDR (p21 and p53 activation),[1]; normal DMEM medium,not seen
same,DDR,[1]; 24 h after exposure,no DDR was observed
N.N.[Cl][Pt][Cl] [Cisplatin],DDR detection (PoD),"[1]; 2D culturing, AAGLY medium",could not be detected
same,concentration giving clear reporter activation,[1]; AAGLY medium or 3D culture,≥ 10 µM
same,PoD of reporter activation,"[1]; HepG2 2D, normal DMEM medium",0.32 to 1.83 µM
same,concentration giving clear concentration-dependent reporter activation,"[1]; all DNA damage reporters, 2D, normal DMEM medium",≥ 0.46 µM
same,PoD (CometChip),PHH,6.3 µM
Nc1ccn([C@@H]2O[C@H](CO)[C@@H](O)C2(F)F)c(=O)n1 [Gemcitabine],BTG2-GFP response across culture conditions,BTG2-GFP HepG2 reporter; human,only induced BTG2-GFP responses in the proliferating HepG2 cultured in 2D in normal DMEM medium
same,PoD of reporter activation,[1],did not induce a quantifiable genotoxic effect
same,genotoxic effects (reporter activation),[1],almost absent
same,PoD of reporter activation,[1]; human,≤ 0.028 µM
Aflatoxin B1,concentration of peak BTG2-GFP induction,BTG2-GFP HepG2 reporter,10 µM
same,concentration at which reporter induction was already observed,[1],0.1 µM
same,induction of DNA damage reporters,[1],"induced DNA damage reporters (BTG2, p21 and p53) in all culture conditions"
same,reporter induction,[1],≤ 4.5 fold

# — PMC9071099, “Towards an advanced testing strategy for genotoxicity using image-based 2D and 3D HepG2 DNA damage response fluorescent protein reporters” (Mutagenesis, 2021)
